# Reference: patent US20240391965A1, “STAPLED ANTIMICROBIAL PEPTIDES (STAMPS) AND USES THEREOF” (Lytica Therapeutics, Inc., priority 2021, published 2024)
# Starred links: 1 amine or outer side, 2 acyl side, 3 side chain; linkers in the order of their positions; H or OH if unused. Positions of bridges follow the written chain, without caps; N, C: chain ends. Residues, ends and D or L forms follow the SMILES beside them. mXylylene = c1cc(C[*:1])cc(C[*:2])c1; pXylylene = c1cc(C[*:2])ccc1C[*:1]; X1 = C(=CC[*:2])C[*:1]
# Key:
# [1] = system: Escherichia coli (E. coli); type: cell-based; details: microbroth dilution, 20-24 hours at 37° C.
# How it was run: (§1)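 Broth microdilution adapted from CLSI in Mueller-Hinton broth or cation-adjusted MHB II; overnight cultures at 37 °C were regrown 3-4 h, then added to serially diluted peptide at a final 5×10^5 CFU/ml. After 20-24 h at 37 °C, MIC was taken as the lowest peptide concentration with no visible growth.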
# [2] = system: Klebsiella pneumoniae (K. pneumoniae); type: cell-based; details: microbroth dilution, 20-24 hours at 37° C.
# How it was run: as §1
# [3] = system: Acinetobacter baumannii (A. baumannii); type: cell-based; details: microbroth dilution, 20-24 hours at 37° C.
# How it was run: as §1
# [4] = system: Staphylococcus aureus (S. aureus); type: cell-based; details: microbroth dilution, 20-24 hours at 37° C.
# How it was run: as §1
# [5] = system: Pseudomonas aeruginosa (P. aeruginosa); type: cell-based; details: microbroth dilution, 20-24 hours at 37° C.
# How it was run: as §1
# [6] = 90 minute cytotoxicity assay (LDH release), renal toxicity; type: cell-based; details: 90 minutes of incubation, LDH release; read-out: Inhibitory Concentration at 50% Cytotoxicity (IC50) Human Renal Proximal Tubule Epithelial Cells (RPTEC)
# How it was run: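 RPTEC plated overnight, given fresh medium, then exposed to serial peptide dilutions or vehicle for 90 min at 37° C. Medium LDH measured by 10 min reagent incubation and absorbance at 490 nm.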
# [7] = 48 hours cytotoxicity assay (CellTiter-Glo), liver toxicity; type: cell-based, human; details: 48 hours of incubation, CellTiter-Glo; read-out: Inhibitory Concentration at 50% Cytotoxicity (IC50) Human Liver Cells (HepG2)
# How it was run: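 HepG2 cells in EMEM with 10% FBS, allowed to attach 4 h, then exposed to serially diluted StAMPs or vehicle for 48 h at 37 °C. Viability read by CellTiter-Glo luminescence.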
Compound,Minimum Inhibitory Concentration (MIC) E. coli [1],Minimum Inhibitory Concentration (MIC) K. pneumoniae [2],Minimum Inhibitory Concentration (MIC) A. baumannii [3],Minimum Inhibitory Concentration (MIC) S. aureus [4],Minimum Inhibitory Concentration (MIC) P. aeruginosa [5],IC50 [6],IC50 [7]
CC[C@H](C)[C@H](NC(=O)CN)C(=O)N[C@@H](Cc1ccccc1)C(=O)N[C@@H](CO)C(=O)N[C@@H](CCCCN)C(=O)N[C@@H](CC(C)C)C(=O)N[C@H]1CSCc2ccc(cc2)CSC[C@@H](C(=O)N[C@@H](CCCCN)C(=O)N[C@@H](CC(N)=O)C(=O)N[C@@H](CC(C)C)C(=O)N[C@@H](CC(C)C)C(=O)N[C@H](C(=O)N[C@@H](CO)C(=O)NCC(=O)N[C@@H](CC(C)C)C(=O)N[C@@H](CCCCN)C(=O)NCC(N)=O)[C@@H](C)CC)NC(=O)[C@H](CCCCN)NC(=O)[C@H](CCCCN)NC(=O)CNC1=O [compound 3] (H-GIFSKLCGKKCKNLLISGLKG-NH2; linker 7-11 via pXylylene),2 µg/mL,16 µg/mL,2 µg/mL,>64 µg/mL,8 µg/mL,79 µg/mL,86 µg/mL
CC[C@H](C)[C@H](NC(=O)CN)C(=O)N[C@@H](Cc1ccccc1)C(=O)N[C@@H](CO)C(=O)N[C@@H](CCCCN)C(=O)N[C@@H](CC(C)C)C(=O)N[C@@H](C)C(=O)N[C@H]1CSCc2cccc(c2)CSC[C@@H](C(=O)N[C@@H](CC(N)=O)C(=O)N[C@@H](CC(C)C)C(=O)N[C@@H](CC(C)C)C(=O)N[C@H](C(=O)N[C@@H](CO)C(=O)NCC(=O)N[C@@H](CC(C)C)C(=O)N[C@@H](CCCCN)C(=O)NCC(N)=O)[C@@H](C)CC)NC(=O)[C@H]([C@@H](C)CC)NC(=O)[C@H](CCCCN)NC(=O)[C@H](CCCCN)NC1=O [compound 10] (H-GIFSKLACKKICNLLISGLKG-NH2; linker 8-12 via mXylylene),4 µg/mL,8 µg/mL,4 µg/mL,32 µg/mL,16 µg/mL,17 µg/mL,18 µg/mL
CC[C@H](C)[C@H](NC(=O)CN)C(=O)N[C@@H](Cc1ccccc1)C(=O)N[C@@H](CO)C(=O)N[C@@H](CCCCN)C(=O)N[C@@H](CC(C)C)C(=O)N[C@@H](C)C(=O)N[C@H]1CSCc2ccc(cc2)CSC[C@@H](C(=O)N[C@@H](CC(N)=O)C(=O)N[C@@H](CC(C)C)C(=O)N[C@@H](CC(C)C)C(=O)N[C@H](C(=O)N[C@@H](CO)C(=O)NCC(=O)N[C@@H](CC(C)C)C(=O)N[C@@H](CCCCN)C(=O)NCC(N)=O)[C@@H](C)CC)NC(=O)[C@H]([C@@H](C)CC)NC(=O)[C@H](CCCCN)NC(=O)[C@H](CCCCN)NC1=O [compound 11] (H-GIFSKLACKKICNLLISGLKG-NH2; linker 8-12 via pXylylene),4 µg/mL,8 µg/mL,4 µg/mL,32 µg/mL,8 µg/mL,16 µg/mL,23 µg/mL
CC[C@H](C)[C@H](NC(=O)CN)C(=O)N[C@@H](Cc1ccccc1)C(=O)N[C@@H](CO)C(=O)N[C@@H](CCCCN)C(=O)N[C@@H](CC(C)C)C(=O)N[C@@H](C)C(=O)N[C@H]1CSCC=CCSC[C@@H](C(=O)N[C@@H](CC(N)=O)C(=O)N[C@@H](CC(C)C)C(=O)N[C@@H](CC(C)C)C(=O)N[C@H](C(=O)N[C@@H](CO)C(=O)NCC(=O)N[C@@H](CC(C)C)C(=O)N[C@@H](CCCCN)C(=O)NCC(N)=O)[C@@H](C)CC)NC(=O)[C@H]([C@@H](C)CC)NC(=O)[C@H](CCCCN)NC(=O)[C@H](CCCCN)NC1=O [compound 12] (H-GIFSKLACKKICNLLISGLKG-NH2; linker 8-12 via X1),4 µg/mL,16 µg/mL,4 µg/mL,>64 µg/mL,16 µg/mL,70 µg/mL,50 µg/mL
CC[C@H](C)[C@H](NC(=O)CN)C(=O)N[C@@H](Cc1ccccc1)C(=O)N[C@@H](CO)C(=O)N[C@@H](CCCCN)C(=O)N[C@@H](CC(C)C)C(=O)N[C@@H](C)C(=O)NCC(=O)N[C@H]1CSCc2ccc(cc2)CSC[C@@H](C(=O)N[C@@H](CC(C)C)C(=O)N[C@@H](CC(C)C)C(=O)N[C@H](C(=O)N[C@@H](CO)C(=O)NCC(=O)N[C@@H](CC(C)C)C(=O)N[C@@H](CCCCN)C(=O)NCC(N)=O)[C@@H](C)CC)NC(=O)[C@H](CCCCN)NC(=O)[C@H]([C@@H](C)CC)NC(=O)[C@H](CCCCN)NC1=O [compound 13] (H-GIFSKLAGCKIKCLLISGLKG-NH2; linker 9-13 via pXylylene),32 µg/mL,64 µg/mL,32 µg/mL,>64 µg/mL,64 µg/mL,> 200 µg/mL,> 200 µg/mL
CC[C@H](C)[C@H](NC(=O)CN)C(=O)N[C@@H](Cc1ccccc1)C(=O)N[C@@H](CO)C(=O)N[C@@H](CCCCN)C(=O)N[C@@H](CC(C)C)C(=O)N[C@@H](C)C(=O)NCC(=O)N[C@@H](CCCCN)C(=O)N[C@H]1CSCc2cccc(c2)CSC[C@@H](C(=O)N[C@@H](CC(C)C)C(=O)N[C@H](C(=O)N[C@@H](CO)C(=O)NCC(=O)N[C@@H](CC(C)C)C(=O)N[C@@H](CCCCN)C(=O)NCC(N)=O)[C@@H](C)CC)NC(=O)[C@H](CC(N)=O)NC(=O)[C@H](CCCCN)NC(=O)[C@H]([C@@H](C)CC)NC1=O [compound 14] (H-GIFSKLAGKCIKNCLISGLKG-NH2; linker 10-14 via mXylylene),4 µg/mL,16 µg/mL,8 µg/mL,32 µg/mL,16 µg/mL,41 µg/mL,49 µg/mL
CC[C@H](C)[C@H](NC(=O)CN)C(=O)N[C@@H](Cc1ccccc1)C(=O)N[C@@H](CO)C(=O)N[C@@H](CCCCN)C(=O)N[C@@H](CC(C)C)C(=O)N[C@@H](C)C(=O)NCC(=O)N[C@@H](CCCCN)C(=O)N[C@H]1CSCc2ccc(cc2)CSC[C@@H](C(=O)N[C@@H](CC(C)C)C(=O)N[C@H](C(=O)N[C@@H](CO)C(=O)NCC(=O)N[C@@H](CC(C)C)C(=O)N[C@@H](CCCCN)C(=O)NCC(N)=O)[C@@H](C)CC)NC(=O)[C@H](CC(N)=O)NC(=O)[C@H](CCCCN)NC(=O)[C@H]([C@@H](C)CC)NC1=O [compound 15] (H-GIFSKLAGKCIKNCLISGLKG-NH2; linker 10-14 via pXylylene),8 µg/mL,32 µg/mL,16 µg/mL,>64 µg/mL,32 µg/mL,82 µg/mL,88 µg/mL
CC[C@H](C)[C@H](NC(=O)CN)C(=O)N[C@@H](Cc1ccccc1)C(=O)N[C@@H](CO)C(=O)N[C@@H](CCCCN)C(=O)N[C@@H](CC(C)C)C(=O)N[C@@H](C)C(=O)NCC(=O)N[C@@H](CCCCN)C(=O)N[C@H]1CSCC=CCSC[C@@H](C(=O)N[C@@H](CC(C)C)C(=O)N[C@H](C(=O)N[C@@H](CO)C(=O)NCC(=O)N[C@@H](CC(C)C)C(=O)N[C@@H](CCCCN)C(=O)NCC(N)=O)[C@@H](C)CC)NC(=O)[C@H](CC(N)=O)NC(=O)[C@H](CCCCN)NC(=O)[C@H]([C@@H](C)CC)NC1=O [compound 16] (H-GIFSKLAGKCIKNCLISGLKG-NH2; linker 10-14 via X1),32 µg/mL,>64 µg/mL,64 µg/mL,>64 µg/mL,>64 µg/mL,> 200 µg/mL,> 200 µg/mL
CC[C@H](C)[C@H](NC(=O)CN)C(=O)N[C@@H](Cc1ccccc1)C(=O)N[C@@H](CO)C(=O)N[C@@H](CCCCN)C(=O)N[C@@H](CC(C)C)C(=O)N[C@@H](C)C(=O)NCC(=O)N[C@@H](CCCCN)C(=O)N[C@@H](CCCCN)C(=O)N[C@H]1CSCc2cccc(c2)CSC[C@@H](C(=O)N[C@H](C(=O)N[C@@H](CO)C(=O)NCC(=O)N[C@@H](CC(C)C)C(=O)N[C@@H](CCCCN)C(=O)NCC(N)=O)[C@@H](C)CC)NC(=O)[C@H](CC(C)C)NC(=O)[C@H](CC(N)=O)NC(=O)[C@H](CCCCN)NC1=O [compound 17] (H-GIFSKLAGKKCKNLCISGLKG-NH2; linker 11-15 via mXylylene),64 µg/mL,>64 µg/mL,>64 µg/mL,>64 µg/mL,>64 µg/mL,> 200 µg/mL,> 200 µg/mL
